Data published in ChEMBL document CHEMBL4811312, “SAR towards indoline and 3-azaindoline classes of IDO1 inhibitors” (Bioorg Med Chem Lett, 2021).
Blank lines part the entries; values can stand above or below the molecule they belong to.

Legend:
[1] = target: T1, Indoleamine 2,3-dioxygenase 1 (Homo sapiens, UniProt P14902); assay: Inhibition of human IDO1 in HEK293 cells at 10 uM relative to control; format: cell-based
Target sequence in this assay (P14902 whole entry, looked up): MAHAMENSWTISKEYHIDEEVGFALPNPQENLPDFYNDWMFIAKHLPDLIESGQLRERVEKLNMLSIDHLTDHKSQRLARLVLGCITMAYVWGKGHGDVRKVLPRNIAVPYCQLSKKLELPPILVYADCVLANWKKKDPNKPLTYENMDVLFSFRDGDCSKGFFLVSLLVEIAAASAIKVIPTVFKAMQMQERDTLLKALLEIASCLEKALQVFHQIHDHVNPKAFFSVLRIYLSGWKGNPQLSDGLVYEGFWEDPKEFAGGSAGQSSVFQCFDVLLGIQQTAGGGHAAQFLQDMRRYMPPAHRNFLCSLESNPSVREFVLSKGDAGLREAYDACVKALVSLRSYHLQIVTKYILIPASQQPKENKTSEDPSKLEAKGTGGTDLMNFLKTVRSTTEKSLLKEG

[2] = target: T1, Indoleamine 2,3-dioxygenase 1; assay: Inhibition of human IDO1 assessed as unbound compound concentration by human whole blood assay; format: tissue-based
Target sequence in this assay (P14902 whole entry): as the sequence (P14902 whole entry, looked up) above

[3] = target: T1, Indoleamine 2,3-dioxygenase 1; assay: Inhibition of human IDO1 in human Hela cells; format: cell-based
Target sequence in this assay (P14902 whole entry): as the sequence (P14902 whole entry, looked up) above

[4] = Clearance in Wistar Han rats at 0.05 mg/kg, iv; format: ADME, organism-based; settings: rat, in vivo
[5] = target: T1, Indoleamine 2,3-dioxygenase 1; assay: Inhibition of human IDO1 by human whole blood assay; format: tissue-based
Target sequence in this assay (P14902 whole entry): as the sequence (P14902 whole entry, looked up) above

[6] = Unbound clearance in Wistar Han rats at 0.05 mg/kg, iv; format: ADME, organism-based; settings: rat, in vivo
[7] = Mean residence time in Wistar Han rat at 0.5 mg/kg, iv; format: ADME, organism-based; settings: in vivo
[8] = Unbound clearance in Beagle dog at 0.05 mg/kg, iv; format: ADME, organism-based, Canis lupus familiaris; settings: in vivo
[9] = Clearance in Beagle dog at 0.05 mg/kg, iv; format: ADME, organism-based, Canis lupus familiaris; settings: in vivo
[10] = Mean residence time in Beagle dog at 0.5 mg/kg, iv; format: ADME, organism-based, Canis lupus familiaris; settings: in vivo
[11] = target: T1, Indoleamine 2,3-dioxygenase 1; assay: Inhibition of human IDO1 in human Hela cells at 10 uM relative to control; format: cell-based
Target sequence in this assay (P14902 whole entry, looked up): as above

inhibition [1]: 89%
Structure (SMILES): CCC(=O)N1CCc2cc(CNC(=O)c3cccs3)ccc21

IC50 [2]: 0.00084 µM
Structure (SMILES): O=C(c1cccc(Cl)c1)N1CCc2nc(C3(C(=O)Nc4ccc(F)cc4)CCC3)ccc21

IC50 [3]: 0.127 µM
Structure (SMILES): O=C(Nc1ccc(F)cc1)C1(c2ccc3c(n2)CCN3c2ccnc(C(F)(F)F)n2)CCC1

clearance [4]: 3.18 L/h/kg
IC50 [5]: 0.34 µM
IC50 [3]: 0.0023 µM
IC50 [2]: 0.00034 µM
CL free [6]: 2155.7 L/h/kg
MRT [7]: 2.2 h
Structure (SMILES): O=C(Nc1ccc(Cl)cc1)C1(c2ccc3c(n2)CCN3c2ccccn2)CCC1

clearance [4]: 0.288 L/h/kg
IC50 [5]: 0.39 µM
IC50 [3]: 0.0041 µM
IC50 [2]: 0.011 µM
CL free [8]: 288 L/h/kg
clearance [9]: 0.84 L/h/kg
MRT [10]: 4.9 h
CL free [6]: 10.4 L/h/kg
MRT [7]: 2.9 h
Structure (SMILES): O=C(NC1(c2ccc3c(n2)CCN3C(=O)OC2CC2)CC1)c1ccc(Cl)cc1

inhibition [1]: 45%
Structure (SMILES): CC(C)NC(=O)NCc1ccc2c(c1)CCN2C(=O)c1ccccc1

inhibition [1]: 14%
Structure (SMILES): CCC(=O)N1CCc2cc(CNC(=O)c3ccnn3C)ccc21

IC50 [3]: 0.09 µM
inhibition [11]: 90%
Structure (SMILES): O=C(NCc1ccc2c(c1)CCN2C(=O)c1cccc(Cl)c1)c1ccc(Cl)cc1

clearance [4]: 0.198 L/h/kg
IC50 [5]: 0.18 µM
IC50 [3]: 0.0029 µM
MRT [7]: 3.6 h
Structure (SMILES): Cc1nccc(N2c3ccc(C4(NC(=O)c5ccc(F)cc5)CC4)cc3[C@H]3C[C@H]32)n1

inhibition [1]: 88%
Structure (SMILES): CC(C)C(=O)N1CCc2cc(CNC(=O)c3ccc(F)cc3)ccc21

inhibition [1]: 96%
Structure (SMILES): CCC(=O)N1CCc2cc(CNC(=O)c3ccc(F)cc3)ccc21

IC50 [3]: 0.0082 µM
Structure (SMILES): Cc1nccc(N2c3ccc(C4(NC(=O)c5ccc(F)cc5)CC4)cc3[C@@H]3C[C@@H]32)n1

clearance [4]: 0.438 L/h/kg
IC50 [3]: 0.034 µM
CL free [6]: 70.56 L/h/kg
MRT [7]: 3.4 h
Structure (SMILES): Cc1nccc(N2CC3(CC3)c3nc(C4(NC(=O)c5ccc(F)cc5)CC4)ccc32)n1

IC50 [3]: 0.0125 µM
Structure (SMILES): Cc1nccc(N2CCc3nc(C4(C(=O)Nc5ccc(Cl)cc5)CCC4)ccc32)n1

clearance [4]: 5.22 L/h/kg
IC50 [3]: 0.0014 µM
IC50 [2]: 0.00045 µM
CL free [6]: 463.2 L/h/kg
MRT [7]: 1.8 h
Structure (SMILES): O=C(OC1CC1)N1CCc2cc(C3(C(=O)Nc4ccc(F)cc4)CCC3)ccc21

inhibition [1]: 41%
Structure (SMILES): CCC(=O)NCc1ccc2c(c1)CCN2C(=O)c1ccccc1

clearance [4]: 1.2 L/h/kg
IC50 [5]: 0.063 µM
IC50 [3]: 0.0045 µM
IC50 [2]: 0.00063 µM
CL free [6]: 122.9 L/h/kg
MRT [7]: 3.2 h
Structure (SMILES): O=C(NC1(c2ccc3c(n2)CCN3C(=O)OC2CC2)CCC1)c1ccc(Cl)cc1

inhibition [1]: 100%
Structure (SMILES): CC(C)C(=O)N1CCc2cc(CNC(=O)c3cccs3)ccc21

IC50 [5]: 0.09 µM
IC50 [3]: 0.002 µM
Structure (SMILES): O=C(OC1CC1)N1CCc2nc(C3(C(=O)Nc4ccc(Cl)cc4)CCC3)ccc21

IC50 [3]: 0.0069 µM
Structure (SMILES): COCCOC(=O)N1CCc2nc(C3(NC(=O)c4ccc(Cl)cc4)CCC3)ccc21

inhibition [1]: 64%
Structure (SMILES): CCCC(=O)NCc1ccc2c(c1)CCN2C(=O)CC(C)C

inhibition [1]: 100%
Structure (SMILES): CC(C)C(=O)N1CCc2cc(CNC(=O)c3ccccc3)ccc21

clearance [4]: 3.6 L/h/kg
IC50 [5]: 0.33 µM
IC50 [3]: 0.008 µM
IC50 [2]: 0.029 µM
CL free [6]: 40.1 L/h/kg
MRT [7]: 1.2 h
Structure (SMILES): O=C(C1CC1)N1CCc2nc(C3(C(=O)Nc4ccc(F)cc4)CCC3)ccc21

IC50 [3]: 0.046 µM
Structure (SMILES): Cc1nccc(N2CCc3nc(C4(NC(=O)c5ccc(Cl)cc5)CCC4)ccc32)n1

inhibition [1]: 82%
Structure (SMILES): CCC(=O)N1CCc2cc(CNC(=O)c3cccc(F)c3)ccc21

inhibition [1]: 100%
Structure (SMILES): CC(C)CC(=O)N1CCc2cc(CNC(=O)c3ccco3)ccc21

inhibition [1]: 86%
Structure (SMILES): CC(C)CC(=O)N1CCc2cc(CNC(=O)c3cccnc3)ccc21

IC50 [5]: 0.43 µM
IC50 [3]: 0.021 µM
Structure (SMILES): Cc1nccc(N2CCc3nc(C4(C(=O)Nc5ccc(F)cc5)CCC4)ccc32)n1

IC50 [3]: 0.012 µM
Structure (SMILES): O=C(NC1(c2ccc3c(n2)C2(CC2)CN3C(=O)OC2CC2)CC1)c1ccc(F)cc1

clearance [4]: 3.66 L/h/kg
IC50 [3]: 0.0027 µM
CL free [6]: 101.5 L/h/kg
MRT [7]: 2.7 h
Structure (SMILES): O=C(OC1CC1)N1CCc2nc(C3(C(=O)Nc4ccc(F)cc4)CCC3)ccc21

inhibition [1]: 87%
Structure (SMILES): CCC(=O)N1CCc2cc(CNC(=O)c3ccccc3)ccc21

IC50 [5]: 0.43 µM
IC50 [3]: 0.0052 µM
Structure (SMILES): Cc1nccc(N2CCc3cc(C4(C(=O)Nc5ccc(F)cc5)CCC4)ccc32)n1

inhibition [1]: 20%
Structure (SMILES): COCC(=O)NCc1ccc2c(c1)CCN2C(=O)CC(C)C

IC50 [5]: 0.24 µM
IC50 [3]: 0.093 µM
Structure (SMILES): O=C(NC1(c2ccc3c(n2)CCN3c2ccnc(C(F)(F)F)n2)CCC1)c1ccc(Cl)cc1

clearance [4]: 1.74 L/h/kg
IC50 [3]: 0.0056 µM
CL free [6]: 173.9 L/h/kg
MRT [7]: 0.8 h
Structure (SMILES): COC(=O)N1c2ccc(C3(NC(=O)c4ccc(F)cc4)CC3)cc2[C@@H]2CC[C@@H]21

IC50 [5]: 0.066 µM
IC50 [3]: 0.005 µM
Structure (SMILES): Cc1nccc(N2c3ccc(C4(NC(=O)c5ccc(F)cc5)CC4)cc3[C@@H]3CC[C@@H]32)n1

inhibition [1]: 35%
Structure (SMILES): CC(C)CC(=O)N1CCc2cc(CNC(=O)C3CC3)ccc21

clearance [4]: 1.92 L/h/kg
IC50 [5]: 0.3 µM
IC50 [3]: 0.0028 µM
IC50 [2]: 0.0041 µM
CL free [6]: 139.1 L/h/kg
MRT [7]: 1 h
Structure (SMILES): COC(=O)N1c2ccc(C3(NC(=O)c4ccc(F)cc4)CC3)cc2[C@H]2CC[C@H]21

inhibition [1]: 100%
Structure (SMILES): CC(C)CC(=O)N1CCc2cc(CNC(=O)c3cccs3)ccc21

IC50 [5]: 0.64 µM
IC50 [3]: 0.0016 µM
Structure (SMILES): O=C(Nc1ccc(Cl)cc1)C1(c2ccc3c(c2)CCN3c2ccccn2)CCC1

IC50 [3]: 0.092 µM
inhibition [11]: 92%
Structure (SMILES): CC(C)C(=O)N1CCc2cc(CNC(=O)c3ccco3)ccc21

inhibition [1]: 92%
Structure (SMILES): CC(C)C(=O)N1CCc2cc(CNC(=O)c3ccc(Cl)cc3)ccc21

IC50 [3]: 0.0031 µM
Structure (SMILES): O=C(Nc1ccc(F)cc1)C1(c2ccc3c(c2)CCN3c2ccccn2)CCC1

inhibition [1]: 72%
Structure (SMILES): CC(=O)N1CCc2cc(CNC(=O)c3cccs3)ccc21

IC50 [5]: 0.064 µM
IC50 [3]: 0.0038 µM
Structure (SMILES): Cc1nccc(N2c3ccc(C4(NC(=O)c5ccc(F)cc5)CC4)cc3[C@H]3CC[C@H]32)n1

inhibition [1]: 77%
Structure (SMILES): CCC(=O)N1CCc2cc(CNC(=O)c3cccc(Cl)c3)ccc21
